Patent US6911474B2, “Methods, compounds, and compositions for reducing body fat and modulating fatty acid metabolism” (The Regents of the University of California, priority 2001, dated 2005)

Legend:
[1] = Food intake in capsaicin-treated rats (sensory fibers destroyed); type: in vivo, rat; details: OEA 10 mg per kg, i.p., FIG. 6a,c
Excerpt: Chemicals. FAEs and [^2H4] FAEs were synthesized in the laboratory (Giuffrida et al., “Lipid Second Messengers” (ed. Laychock, S. G. & Rubin, R. P.) 113-133 (CRC Press LLC, Boca Raton, Fla., 1998)); 1,2-dioleyl-sn-glycero-phosphoethanolamine-N-oleyl was purchased from Avanti Polar Lipids (Alabaster, Ala.); SR141716A was provided by RBI (Natick, Mass.) as part of the Chemical Synthesis Program of the NIMH (N01MH30003); SR144528 was a generous gift of Sanofi Recherche; all other drugs were from Tocris (Ballwin, Mo.) or Sigma (Saint Louis, Mo.). FAE were dissolved in dimethylsulphoxide (DMSO) and administered in 70% DMSO in sterile saline (acute treatments) or 5% Tween 80/5% propylenglycol in sterile saline (subchronic treatments) (1 ml per kg, i.p.). Capsaicin was administered in 10% Tween 80/10% ethanol/80% saline; SR141716A, SR144528, CCK-8 and CP-93129 in 5% Tween 80/5% propylenglycol/90% saline (1 ml per kg, i.p.).
These findings support the hypothesis that OEA causes hypophagia by acting at a peripheral site, and that sensory fibers are required for this effect.

[2] = Open field activity test; type: in vivo, rat; details: at a dose substantially higher than those required to produce hypophagia; FIG. 4h
Description: (§1) Other behavioral assays. The elevated plus maze test was conducted as described (Navarro et al., Neuroreport, 8:491-496 (1997)) after the administration of vehicle or OEA (20 mg per kg, i.p.). Horizontal activity in an open field (Beltramo et al., J. Neurosci., 20:3401-3407 (2000)) and pain threshold in the hot plate test (55° C.) (Beltramo et al., Science, 277:1094-1097 (1997)) were measured 15 min after injection of vehicle or OEA (20 mg per kg). Rectal temperature was measured using a digital thermometer (Martin-Calderón et al., Eur. J. Pharmacol., 344:77-86. (1998)).

[3] = Acute water intake; type: in vivo, rat; details: 5 or 20 mg per kg; FIG. 4d
Description: FIG. 4. Oleoylethanolamide/[…] selectively suppresses food intake: […] Vehicle alone (70% DMSO in saline, 1 ml per kg, i.p.) had no significant effect on acute food intake; (b) time course of the hypophagic effects of oleoylethanolamide (20 mg per kg, i.p.) (squares) or vehicle (lozenges) on food intake. […] Empty bars, water intake; filled bars, saccharin intake. Effects of vehicle (V) or oleoylethanolamide (5 or 20 mg per kg) on: (d) water intake (expressed in ml per 4 h); (e) body temperature; (f) latency to jump in the hot plate analgesia test; (g) percent time spent in open arms in the elevated plus maze anxiety test; (h) number of crossings in the open field activity test; (i) number of operant responses for food. Asterisk, P<0.05, n=8-12 per group.

[4] = Hot plate test, pain threshold; type: in vivo, rat; details: FIG. 4f
Description: as §1

[5] = tested on: Soleus muscle; assay: [14C]oleate oxidation to CO2 in soleus muscle; type: cell-based, rat
[6] = Circulating OEA level after i.p. administration (HPLC/MS); type: in vivo; details: rat, plasma, ip, 1 hr after 5 mg per kg, read-out: circulating OEA levels
Description: HPLC/MS analyses. Plasma was prepared from blood obtained by cardiac puncture (Giuffrida et al., Anal. Biochem., 280:87-93 (2000)) and CSF was collected from the cisterna magna using a 27G ½ needle (Precisionglide, USA). FAEs and NAPE were extracted from tissues with methanol/chloroform and fractionated by column chromatography (Giuffrida et al., “Lipid Second Messengers” (ed. Laychock, S. G. & Rubin, R. P.) 113-133 (CRC Press LLC, Boca Raton, Fla., 1998)). FAEs were quantified by HPLC/MS, using an isotope dilution method (Giuffrida et al., Anal. Biochem., 280:87-93 (2000)). Individual NAPE species were identified and quantified by HPLC/MS, using an external standard method (Calignano et al., Nature, 408:96-101 (2000)).
OEA elicits hypophagia at physiologically relevant doses. […] Thus, the concentrations reached by OEA in blood during starvation can be sufficient to elicit notable behavioral responses.

[7] = Operant responses for food; type: in vivo, rat; details: at a dose substantially higher than those required to produce hypophagia; FIG. 4i
Excerpt: Operant responses for food. Rats were trained to lever press for food on a fixed ratio 1 (FR1) schedule of reinforcement, while food-restricted at 20 g of chow per rat per day (Rodriguez de Fonseca et al., Acta Pharmacol. Sin., 20:1109-1114 (1999)). Once stable responding was achieved, the animals were trained to acquire an FR5, time out 2-min schedule of food reinforcement and kept in limited access to food. When a stable baseline was obtained, the animals were used to test the effects of vehicle or OEA (1, 5 or 20 mg per kg) administered 15 min before lever presentation. Test duration was 60 min.

[8] = tested on: Cardiomyocyte; assay: [14C]oleate oxidation to CO2 in cardiomyocytes; type: cell-based, rat
[9] = Plasma hormone levels by radioimmunoassay (HPA axis); type: in vivo, rat; details: Table 3
Description: Blood chemistry. Plasma β-hydroxybutyrate and glycerol were measured using commercial kits (Sigrna, St. Louis, Mo.). Plasma prolactin, corticosterone and luteinizing hormone were quantified by radioimmunoassay (Navarro et al., Neuroreport, 8:491-496 (1997)).

[10] = target: T1, cannabinoid receptors (rat brain membranes) (Rattus norvegicus, UniProt P20272); assay: Displacement of cannabinoid binding to rat brain membranes in vitro
T1 construct: from tissue; host or cells: rat brain membranes
T1 sequence (P20272 whole entry): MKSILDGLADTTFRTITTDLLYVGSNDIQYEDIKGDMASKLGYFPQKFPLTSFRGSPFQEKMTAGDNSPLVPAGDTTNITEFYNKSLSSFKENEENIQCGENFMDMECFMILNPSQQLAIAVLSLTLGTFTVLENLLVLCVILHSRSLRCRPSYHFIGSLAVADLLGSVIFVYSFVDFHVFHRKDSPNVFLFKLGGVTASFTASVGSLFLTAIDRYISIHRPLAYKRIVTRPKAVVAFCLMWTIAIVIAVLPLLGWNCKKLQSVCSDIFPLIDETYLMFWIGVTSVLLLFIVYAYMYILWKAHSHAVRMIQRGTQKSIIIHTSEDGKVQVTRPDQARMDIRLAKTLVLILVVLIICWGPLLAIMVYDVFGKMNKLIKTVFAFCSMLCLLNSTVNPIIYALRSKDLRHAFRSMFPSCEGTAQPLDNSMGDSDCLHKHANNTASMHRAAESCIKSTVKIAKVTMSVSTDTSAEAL

[11] = tested on: c-fos mRNA; assay: c-fos mRNA in situ hybridization in brain; type: in vivo, rat; details: 10 mg per kg, i.p., 60 min
Description: In situ hybridization. Rats were accustomed to the handling and injection procedure for five days. On day six, vehicle or drug OEA (10 mg per kg, i.p.), or oleic acid (10 mg per kg) was administered, and the rats killed 60 min later by decapitation under anesthesia. In situ hybridization analyses were conducted using ^35S-labeled cRNA probes for c-fos (Guthrie et al., Proc. Natl. Acad. Sci. U.S.A., 90:3329-3333 (1993)) and choline acetyl transferase (ChAT) (Lauterbom et al., Brain Res. Mol. Brain Res., 17:59-69 (1993)). Average hybridization densities were determined from at least three tissue sections per rat. Statistical significance was evaluated using one-way analysis of variance (ANOVA) followed by the Tukey-Kramer post-hoc test for paired comparisons.

motor activity [2]: reduced
water intake [3]: did not alter
pain threshold [4]: did not alter
concentration at 1 hr [6]: 16.1 ± 2.6 nM
activity of the hypothalamus-pituitary-adrenal (HPA) axis [9]: did not alter
displacement of cannabinoid binding [10]: did not displace
SMILES: CCCCCCCC/C=C\CCCCCCCC(=O)NCCO [OEA, Oleoylethanolamide]
food intake response of capsaicin-treated rats [1]: failed to respond
Stimulatory effect of 10 μM OEA (%) on [14C]oleate oxidation to CO2 ([5]; Soleus muscle, 10 μM, 30 min incubation): 36 ± 10%
fatty acid oxidation in words ([5]; primary cultures of skeletal muscle (soleus)): significantly stimulates
operant responses for food [7]: reduced
Stimulatory effect of 10 μM OEA (%) on [14C]oleate oxidation to CO2 ([8]; Cardiomyocyte, 10 μM, 30 min incubation): 37 ± 9%
fatty acid oxidation in words ([8]; primary cultures of heart cells): significantly stimulates
c-fos expression in other brain regions [11]: not significantly affected
c-fos mRNA levels in the PVN, supraoptic nucleus and NST [11]: highly localized increase
